Assay results from US8268888B2, “Therapy of malignant neoplasias” (priority 2005, dated 2012).
Where two headings read alike, the source gives them in different places.

Legend:
[1] = rat, in vivo; cited from earlier work
[2] = test system: human tumor cells; experiment: Internalisation (uptake) experiments in tumor cells; assay type: cell-based
Experimental: Uptake experiments were undertaken to evaluate the affinity of the proposed L-phenylalanine derivatives for the proposed human tumors, and to assess their therapeutic activity in vitro. All experiments were performed fourfold, simultaneously with 250000, 500000 and 10^6 freshly prepared human tumor cells, including human malignant glioma cells, pancreatic prostatic and breast cancer cells. Before experiments, subconfluent cells were trypsinized as described above. The suspension was mixed thoroughly, transferred to a 50-ml centrifuge tube (Falcon®, Becton Dickinson, USA). Cells were centrifuged for 5 min at 200×g; the resulting supernatant was removed and the pellet resuspended in serum-free Dulbecco's Mod Eagle medium and then transferred to Eppendorf tubes at concentrations of 10^6 cells/ml for the uptake investigations. Before incubation with the corresponding radiolabeled phenylalanine, the tumor cells were preincubated for 5 min in 500 μL medium at 37° C. in 1.5-ml Eppendorf centrifuge tubes. Aliquots of 30-50 μL (10^6−1.5×10^6 cpm) freshly prepared radiopharmaceutical were added and cells incubated at 37° C./5% CO2 for 1, 2, 5, 15, 30, 60, 90 and 120 min while shaking. Uptake was stopped with 500 μL ice-cold PBS (pH 7.4) and an additional 3-min in an ice bath, the cells were centrifuged for 2 min at 300×g, the supernatant removed and the pellet washed three time with ice-cold PBS. Cell pellets were counted for radioactivity together with 3 aliquots of standards on a Berthold LB951 counter. The percentage of binding of the radiopharmaceutical was calculated by the formula: (cpm cell pellet/mean cpm radioactive standards)×100. The results were expressed either as percent of the applied dose per 10^6 cells or as cpm/1000 cells for better comparison.

[3] = test system: malignant cell lines; experiment: Cell survival rate after treatment with 3/4-iodo-L-phenylalanine (cytotoxic/cytostatic effect); assay type: cell-based, human
Experimental: Five human glioma cell lines, one rat glioma cell line, two human prostate cancer cell lines, as well as one human breast cancer cell line, and a melanoma cell line were investigated. The human glioma cell lines Tx 3868 and T 5135 (from primary human glioblastoma multiforme), and the rat C6 glioma cells were provided by the Institute of Human Genetics, University of the Saarland (Homburg, Germany). The human high-grade glioma cells, designated as A1207, M059K and U373MG, the human prostate cancer cells PC3 and […], the pancreatic carcinoma cell line PanC1, the human breast cancer cell line MCF-07 (American Type Culture Collection, Rockville, Md.), and the pancreatic carcinoma cell line PaCa44 (established by Dr Bulow, Mainz, Germany) as well as the melanoma cell lines SK-MEL25 and A101D were purchased commercially or provided by the oncological research laboratory of the University Medical Center of Saarland (Homburg, Germany). […]
Human tumor cells grown on standard glass slides were fixed in 4% neutral buffered formalin and stained with the Giemsa method. The cell number was calculated in 10 consecutive high power fields (×40).

[4] = test system: human Tx3868 glioblastoma cells; experiment: Radiosensitizing effect: IPA combined with external irradiation in glioblastoma cells; assay type: cell-based; details: for radiosensitizer effect: concomitantly administered therapeutic radiation
Experimental: Five human glioma cell lines, one rat glioma cell line, two human prostate cancer cell lines, as well as one human breast cancer cell line, and a melanoma cell line were investigated. The human glioma cell lines Tx 3868 and T 5135 (from primary human glioblastoma multiforme), and the rat C6 glioma cells were provided by the Institute of Human Genetics, University of the Saarland (Homburg, Germany). The human high-grade glioma cells, designated as A1207, M059K and U373MG, the human prostate cancer cells PC3 and […], the pancreatic carcinoma cell line PanC1, the human breast cancer cell line MCF-07 (American Type Culture Collection, Rockville, Md.), and the pancreatic carcinoma cell line PaCa44 (established by Dr Bulow, Mainz, Germany) as well as the melanoma cell lines SK-MEL25 and A101D were purchased commercially or provided by the oncological research laboratory of the University Medical Center of Saarland (Homburg, Germany). Cells were cultivated in RPMI-1640 medium or in Dulbecco's modified Eagle medium (sodium pyruvate-free, supplemented with […] and pyridoxine), respectively, supplemented with 10% (v/v) heat-inactivated foetal calf serum (FCS), penicillin (50 U/ml), streptomycin (50 μg/ml), and insulin (50 μg/ml; PromoCell, Heidelberg, Germany). All cell lines were maintained in appropriate flasks in a humidified incubator (5% CO2) at 37° C. Before the experiment, subconfluent cell cultures were trypsinized with a solution of 0.05% trypsin containing 0.02% EDTA but without Ca^2+ and Mg^2+, and resuspended in fresh medium to various cell concentrations after counting by vital staining on a hemocytometer, depending upon the study. Cells were free of mycoplasms. Viability of the cells was >95%.
Evaluation of the cell survival rate after treatment with 3/4-iodo-L-phenylalanine. After development of a confluent lawn of cells, the cultures were exposed to 0.1-5 μmol/ml of the corresponding pharmaceutical for up to 48 hours at 37° C./5% CO2. In a parallel experiment, cells were irradiated using a 6-MeV linear accelerator with doses from 2 to 15 Gy or treated with IPA-131 for comparison of cell survival rate. In order to be able to observe the morphology of the glioma cells, the cells were grown on standard glass slides or in standard culture dishes. Then the medium was removed and the cells were fixed either in 70% ethanol for at least 30 min on ice for flow-cytometric analyses after staining or in 4% neutral buffered formalin for immunohistopathological analyse.

[5] = test system: human A1207 and T3868 glioblastoma xenografts; experiment: Intracranial human glioma model in RNU rats (survival); assay type: in vivo; details: daily in first week then weekly, n=9
Experimental: An in vivo experiment was carried out in an intracranial human glioma model in RNU rats to assess the therapeutic effectiveness of 4-Iodo-L-phenylalanine (IPA) in glioma.
Primary human A1207 and T3868 glioblastoma cells (0.5×10^6 cells) were stereotaxically implanted into the right frontal region of RNU rats (2 mm posterior and 2 mm lateral to the intersection of the sagittal and bregma sutures to a depth of 5 mm) while under chloralhydrate anesthesia. The craniectomy was resealed with bone wax and the scalp closed.
IPA (1 and 5 mg/kg b.w.) was administrated i.p. in rats bearing human glioblastoma xenografts (n=9 in each group), starting at day 1 after stereotaxic implantation.
IPA was administrated daily in the first week after implantation and weekly afterwards. Another six RNU rats were treated with saline and served as control.
Then the following parameters were compared: median survival time, tumor size and histology after biopsy.

[6] = Acute toxicity (LD50/LD10) in rats; details: i.p. injection
[7] = rats, cited from earlier work
[8] = test system: malignant gliomas; details: cited from earlier work

Structure (SMILES): N[C@@H](Cc1ccc(Cl)cc1)C(=O)O (racemic) [p-chloro-phenylalanine]
- effect on growth of developing rats [1]: interferes with the growth of developing rats

Structure (SMILES): N[C@@H](Cc1ccccc1I)C(=O)O [2-iodo-L-phenylalanine, reference compound]
- uptake in neoplastic cells ([2]; compared with IPA and IMA): low uptake
- cytotoxicity in neoplastic cells ([3]; compared with IPA and IMA): moderate cytotoxity

Structure (SMILES): N[C@@H](Cc1cccc(I)c1)C(=O)O [3-iodo-L-phenylalanine]
- radiosensitizer effect [4]: significant intrinsic radiosensitizer effect

Structure (SMILES): N[C@@H](Cc1ccc(I)cc1)C(=O)O [IPA, 4-iodo-L-phenylalanine]
- uptake in human tumor cells ([2]; quantified with 4-[123I]iodo-L-phenylalanine, up to 120 min, FIGS. 1-3): high uptake
- concentration up to which transport capacity did not show saturation ([2]; tumor cells): > 200 µmol/L
- rats still alive at day 28 ([5]; IPA 1 mg/kg i.p.): six out of nine
- rats still alive at day 28 ([5]; IPA 5 mg/kg i.p.): seven out of nine
- cytostatic effect on primary human glioblastoma cells ([3]; FIG. 4, compared with external irradiation): concentration dependent and more pronounced as compared to external irradiation up to 15 Gy
- LD10 [6]: > 27 mg/kg
- LD50 ([7]; route not stated): > 100 mg/kg
- induction of necrosis/apoptosis ([4]; 0.3 μmol/ml IPA with 10 Gy external radiation, FIG. 7b): increased induction of necrosis and additional induction of apoptosis
- radiosensitizer effect [4]: significant intrinsic radiosensitizer effect
- cell survival rate on combining with external irradiation ([4]; glioma cells, FIGS. 4-6): dramatic reduction of cell survival rate

Structure (SMILES): N[C@@H](Cc1ccc([123I])cc1)C(=O)O [IPA-123, 4-[^123I]iodo-L-phenylalanine]
- blood-brain barrier passage ([8]; after intravenous administration): crosses
- enrichment in certain tumors (factor) ([8]; certain tumors): ≥ 20

Structure (SMILES): N[C@@H](Cc1ccccc1)C(=O)O [L-phenylalanine, reference compound]
- LD50 ([7]; i.p. injection, according to the manufacturer): 5280 mg/kg
